Measurements from patent publication US8795634B2, “Absorption of therapeutic agents across mucosal membranes or the skin” (Critical Pharmaceuticals Limited, priority 2008, dated 2014).

What was measured:
[1] = Blood glucose after intranasal insulin with Solutol HS15 or its individual components (Example 8); type: in vivo, male Sprague Dawley rats; details: insulin 4 IU/kg intranasal; PEG 600 10% w/v, PEG-HSA 10% w/v, HSA 0.37%, HSA-PEG-HSA 2%
Method: The PEG-HSA and HSA-PEG-HSA were prepared by refluxing polyethylene glycol 600 (PEG 600) and 12-Hydroxystearic acid (HSA) under argon at 120° C. using methane sulfonic acid. All chemicals were purchased from Sigma Aldrich.
Four components were tested in vivo. The following components were dissolved into 0.063M phosphate buffer at the concentrations below: • PEG 600—10% w/v solution • PEG-HSA—10% w/v Solution • HSA—0.37% solution • HSA-PEG-HSA—2% solution
The lower concentrations of HSA and HSA-PEG-HSA were used due to restricted solubility of these materials.
The components dissolved in phosphate buffer were then used to prepare 1 mg/mL insulin solutions and administered intranasally to male Sprague Dawley rats at a rate of 4 IU/kg. All formulations were administered with a Gilson pipette and the tip was inserted approximately 5 mm into the nostril. The animals were housed in limited access rooms where the temperature and humidity were maintained at 21° C.±2° C. and 55%±15% relative respectively; the rooms were lit with artificial light for 12 hours each day. Blood samples were collected from the tail vein of the rats at 0 min (Pre-dose) and 5, 15, 30, 60 and 120 minutes after administration into heparinized tubes, centrifuged and the plasma collected. Blood glucose was measured immediately at each sampling point using a one touch Ultra 2 glucose meter (LifeScan, UK).

[2] = Blood glucose after intranasal insulin in Solutol HS15 solutions (Example 1); type: in vivo, Sprague Dawley rats; details: control insulin solutions, without Solutol HS15
Method: The formulations were then administered intranasally to Sprague Dawley rats at 4 IU/kg and blood samples taken at frequent intervals up to 2 hours after administration. Blood glucose was measured using a standard glucose meter and insulin determined in the plasma by an enzyme linked immunosorbant assay (ELISA).
A group of rats was also administered with insulin dissolved in PBS via subcutaneous injection as comparison to the intranasal doses.

| Compound | drop in blood glucose levels [1] | decrease in plasma glucose levels [2] |
| --- | --- | --- |
| CCCCCCC(O)CCCCCCCCCCC(=O)O (centres unmarked) [HSA, 12-Hydroxystearic acid] | did not | – |
| insulin: Insulin (available from Sigma-Aldrich) | – | 15% |
